Test systems include A498; BT-549; DU-145; HL-60; IGROV-1; K562; LOX IMVI; MCF7; MDA-MB-435; MDA-N; Malme-3M; NCI-H226; NCI-H23; NCI/ADR-RES; OVCAR-3; SF-295; SF-539; SNB-75; SR; UACC-62.
Experiment in all cases: growth of human tumour cells (NCI), 48 h

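Tested at 5 concentrations; 48 h exposure; 96-well plates; endpoints linearly interpolated, else capped at highest concentration. The concentration for 50% growth inhibition is given as GI50.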 The source made the active and inactive calls. No stated cut-off is given here; in the data, active = GI50 up to about 1.1 µM and inactive = higher.

On to `CCOC(=O)N1C/C(=C\c2ccccc2)C(=O)/C(=C/c2ccccc2)C1`, for which the GI50 in the experiment on A498 is 18 µM (inactive); in the experiment on BT-549, 2.3 µM (inactive); in the experiment with DU-145, 8.81 µM (inactive); with HL-60, 1.24 µM (inactive); in the experiment on IGROV-1 it was 5.02 µM (inactive); in the experiment on K562 it was 1.44 µM (inactive). The GI50 with LOX IMVI is 1.7 µM (inactive); in the experiment on MCF7 it was 0.955 µM (active); with MDA-MB-435, 2.48 µM (inactive); in the experiment with MDA-N it was 1.72 µM (inactive); in the experiment with Malme-3M it was 7.36 µM (inactive); in the experiment on NCI-H226, 4.56 µM (inactive). In addition, the GI50 with NCI-H23 was 5.31 µM (inactive); in the experiment on NCI/ADR-RES, 9.12 µM (inactive); with OVCAR-3, 4.23 µM (inactive); in the experiment on SF-295 it was 3.01 µM (inactive); with SF-539, 5.08 µM (inactive); in the experiment on SNB-75 it was 6.97 µM (inactive). For the same compound, the figures for the GI50 in the experiment with SR and in the experiment on UACC-62 were 0.873 µM (active) and 2.66 µM (inactive), respectively.
Turning to `Cc1cc(N(CCCl)CCCl)ccc1/C=N/NC(=O)Cc1cc(=O)oc2cc(O)ccc12`, the GI50 was 13.7 µM (inactive) in the experiment with A498; 13.4 µM (inactive) with BT-549; 18.5 µM (inactive) in the experiment with DU-145; 12.2 µM (inactive) in the experiment on HL-60; 15.8 µM (inactive) in the experiment on IGROV-1; 9.18 µM (inactive) in the experiment with K562. The GI50 was 12.6 µM (inactive) in the experiment on LOX IMVI; 5.83 µM (inactive) with MCF7; 11.2 µM (inactive) in the experiment on MDA-MB-435; 12.7 µM (inactive) in the experiment on MDA-N; 12.6 µM (inactive) in the experiment with Malme-3M; 15.7 µM (inactive) in the experiment with NCI-H226. For the same compound, the GI50 in the experiment with NCI-H23 was 19.5 µM (inactive); in the experiment on NCI/ADR-RES, 37.6 µM (inactive); with OVCAR-3, 21.3 µM (inactive); in the experiment with SF-295, 17.2 µM (inactive); in the experiment on SF-539, 18 µM (inactive); in the experiment with SNB-75 it was 28.6 µM (inactive). Moreover, the figures for the GI50 with SR and with UACC-62 were 7.08 µM (inactive) and 2.37 µM (inactive), respectively.
For the compound `S=C1N=C(Cl)/C(=C\c2ccccc2)N1`, the GI50 in the experiment on A498, with BT-549, in the experiment with DU-145, in the experiment with HL-60, in the experiment with IGROV-1 and in the experiment on K562 was > 100 µM (inactive) throughout. Besides, the GI50 with LOX IMVI is > 100 µM (inactive); in the experiment on MCF7, > 100 µM (inactive); with MDA-MB-435, > 100 µM (inactive); with MDA-N, > 100 µM (inactive); with Malme-3M, > 83.6 µM (inactive); in the experiment with NCI-H226 it was > 100 µM (inactive). The GI50 in the experiment on NCI-H23, with NCI/ADR-RES, with OVCAR-3, in the experiment on SF-295, with SF-539 and with SNB-75 was > 100 µM (inactive) each time. Moreover, the GI50 in the experiment on SR and in the experiment on UACC-62 was > 100 µM (inactive) each time.
Regarding `CC1C(C#N)(C#N)C(C#N)=C(N)C1(Cl)[N+](=O)[O-]` (stereo not given), the GI50 with A498 was 17.4 µM (inactive); with BT-549 it was 13.3 µM (inactive); in the experiment on DU-145 it was 16.7 µM (inactive); in the experiment with HL-60, 2.37 µM (inactive); in the experiment on IGROV-1, 7.45 µM (inactive); with K562 it was 2.88 µM (inactive). Besides, the GI50 in the experiment on LOX IMVI is 5.32 µM (inactive); with MCF7, 17.2 µM (inactive); in the experiment on MDA-MB-435, 16.7 µM (inactive); with MDA-N it was 9.04 µM (inactive); with Malme-3M, 5.71 µM (inactive); with NCI-H226 it was 17.1 µM (inactive). Besides, the GI50 with NCI-H23 is 18.7 µM (inactive); in the experiment with NCI/ADR-RES it was 16 µM (inactive); in the experiment with OVCAR-3, 10 µM (inactive); with SF-295, 18.8 µM (inactive); in the experiment on SF-539, 11.5 µM (inactive); in the experiment on SNB-75, 11.7 µM (inactive). The GI50 was 5.01 µM (inactive) with SR and 11.4 µM (inactive) with UACC-62.
Take `COC(=O)c1c(O)ccc2c1c1c(n2Cc2ccccn2)C(=O)c2ccccc2C1`: the GI50 was > 100 µM (inactive) in the experiment on A498; > 100 µM (inactive) in the experiment on BT-549; > 100 µM (inactive) in the experiment on DU-145; > 100 µM (inactive) with HL-60; 71 µM (inactive) with IGROV-1; > 100 µM (inactive) with K562. Besides, the GI50 was > 100 µM (inactive) with LOX IMVI; 22.9 µM (inactive) in the experiment on MCF7; 86.5 µM (inactive) with MDA-MB-435; > 100 µM (inactive) with MDA-N; > 100 µM (inactive) in the experiment on Malme-3M; > 100 µM (inactive) with NCI-H226. Moreover, the GI50 in the experiment with NCI-H23 was > 100 µM (inactive); in the experiment on NCI/ADR-RES it was 44.4 µM (inactive); with OVCAR-3 it was > 100 µM (inactive); in the experiment with SF-295, > 100 µM (inactive); in the experiment on SF-539, 87.9 µM (inactive); with SNB-75, > 100 µM (inactive). Besides, the GI50 in the experiment with SR and in the experiment on UACC-62 was > 100 µM (inactive) in each case.
As to `NS(=O)(=O)c1ccc(/N=N/c2nc3[nH]cnc(=S)c3[nH]2)cc1`, the GI50 with A498 was 23 µM (inactive); in the experiment with BT-549, 1.3 µM (inactive); with DU-145 it was 0.638 µM (active); with HL-60 it was 2.77 µM (inactive); with IGROV-1 it was 7.29 µM (inactive); in the experiment on K562 it was 0.3 µM (active). For the same compound, the GI50 with LOX IMVI was 0.236 µM (active); with MCF7, 0.944 µM (active); with MDA-MB-435, 0.975 µM (active); in the experiment on MDA-N it was 0.684 µM (active); in the experiment on Malme-3M it was 1.93 µM (inactive); with NCI-H226, 4.65 µM (inactive). The GI50 with NCI-H23 was 1.74 µM (inactive); with NCI/ADR-RES it was 0.365 µM (active); in the experiment with OVCAR-3, 1.22 µM (inactive); in the experiment on SF-295 it was 1.59 µM (inactive); in the experiment with SF-539 it was 3.92 µM (inactive); in the experiment with SNB-75 it was 2.05 µM (inactive). The figures for the GI50 in the experiment on SR and with UACC-62 were 0.0803 µM (active) and 0.388 µM (active), respectively.
As to `CC1C(C#N)(C#N)C(C#N)=C(N)C1(C)[N+](=O)[O-]` (stereo not given), the GI50 is 68.2 µM (inactive) with A498; 42.1 µM (inactive) with BT-549; > 100 µM (inactive) with DU-145; 29.8 µM (inactive) in the experiment with HL-60; 37.2 µM (inactive) with IGROV-1; 29.9 µM (inactive) with K562. Also, the GI50 with LOX IMVI is 37.7 µM (inactive); in the experiment on MCF7, 24.8 µM (inactive); in the experiment on MDA-MB-435 it was 45.7 µM (inactive); with MDA-N, 64.6 µM (inactive); with Malme-3M, 48.2 µM (inactive); in the experiment on NCI-H226, > 100 µM (inactive). Besides, the GI50 is > 100 µM (inactive) in the experiment on NCI-H23; > 100 µM (inactive) in the experiment on NCI/ADR-RES; 67.9 µM (inactive) in the experiment on OVCAR-3; > 100 µM (inactive) in the experiment on SF-295; 31.5 µM (inactive) in the experiment with SF-539; 89.5 µM (inactive) with SNB-75. Besides, the results for the GI50 in the experiment on SR and in the experiment with UACC-62 were 31.2 µM (inactive) and 50.4 µM (inactive), respectively.
